Experimental data reported in the CheMixHub ionic liquid set.
± gives the uncertainty stated by the source.

Test: xn = mol fraction of the nth substance listed

## CC[n+]1ccn(C)c1.N#C[N-]C#N + O
288.15 K, 100 kPa, x2 = 0
  viscosity: 20 ± 1.2 mPa·s
288.15 K, 100 kPa, x2 = 0.1016
  viscosity: 17.49 ± 0.96 mPa·s
288.15 K, 100 kPa, x2 = 0.2014
  viscosity: 15.14 ± 0.77 mPa·s
288.15 K, 100 kPa, x2 = 0.2999
  viscosity: 13.02 ± 0.61 mPa·s
288.15 K, 100 kPa, x2 = 0.4015
  viscosity: 11.08 ± 0.45 mPa·s
288.15 K, 100 kPa, x2 = 0.5106
  viscosity: 9.24 ± 0.32 mPa·s
288.15 K, 100 kPa, x2 = 0.5934
  viscosity: 7.86 ± 0.24 mPa·s
288.15 K, 100 kPa, x2 = 0.7465
  viscosity: 5.45 ± 0.13 mPa·s
288.15 K, 100 kPa, x2 = 0.7974
  viscosity: 4.58 ± 0.1 mPa·s
288.15 K, 100 kPa, x2 = 0.9004
  viscosity: 2.76 ± 0.04 mPa·s
288.15 K, 100 kPa, x2 = 0.9498
  viscosity: 1.93 ± 0.03 mPa·s
293.15 K, 100 kPa, x2 = 0
  viscosity: 16.9 ± 1 mPa·s
293.15 K, 100 kPa, x2 = 0.1016
  viscosity: 14.89 ± 0.81 mPa·s
293.15 K, 100 kPa, x2 = 0.2014
  viscosity: 12.98 ± 0.66 mPa·s
293.15 K, 100 kPa, x2 = 0.2999
  viscosity: 11.23 ± 0.52 mPa·s
293.15 K, 100 kPa, x2 = 0.4015
  viscosity: 9.59 ± 0.39 mPa·s
293.15 K, 100 kPa, x2 = 0.5106
  viscosity: 8 ± 0.28 mPa·s
293.15 K, 100 kPa, x2 = 0.5934
  viscosity: 6.83 ± 0.21 mPa·s
293.15 K, 100 kPa, x2 = 0.7465
  viscosity: 4.74 ± 0.11 mPa·s
293.15 K, 100 kPa, x2 = 0.7974
  viscosity: 3.99 ± 0.09 mPa·s
293.15 K, 100 kPa, x2 = 0.9004
  viscosity: 2.41 ± 0.04 mPa·s
293.15 K, 100 kPa, x2 = 0.9498
  viscosity: 1.69 ± 0.02 mPa·s
293.2 K, 101 kPa, x2 = 0.6
  electrical conductivity: 4.47 ± 0.1 S/m
293.2 K, 101 kPa, x2 = 0.8
  electrical conductivity: 5.69 ± 0.13 S/m
298.15 K, 100 kPa, x2 = 0
  viscosity: 14.54 ± 0.88 mPa·s
298.15 K, 100 kPa, x2 = 0.1016
  viscosity: 12.86 ± 0.7 mPa·s
298.15 K, 100 kPa, x2 = 0.2014
  viscosity: 11.23 ± 0.57 mPa·s
298.15 K, 100 kPa, x2 = 0.2999
  viscosity: 9.77 ± 0.46 mPa·s
298.15 K, 100 kPa, x2 = 0.4015
  viscosity: 8.37 ± 0.34 mPa·s
298.15 K, 100 kPa, x2 = 0.5106
  viscosity: 7.01 ± 0.24 mPa·s
298.15 K, 100 kPa, x2 = 0.5934
  viscosity: 5.99 ± 0.19 mPa·s
298.15 K, 100 kPa, x2 = 0.7465
  viscosity: 4.16 ± 0.1 mPa·s
298.15 K, 100 kPa, x2 = 0.7974
  viscosity: 3.5 ± 0.07 mPa·s
298.15 K, 100 kPa, x2 = 0.9004
  viscosity: 2.13 ± 0.03 mPa·s
298.15 K, 100 kPa, x2 = 0.9498
  viscosity: 1.5 ± 0.02 mPa·s
298.15 K, 101 kPa, x2 = 0
  viscosity: 14.9 ± 0.62 mPa·s
298.15 K, 101 kPa, x2 = 0.2248
  viscosity: 11.24 ± 0.46 mPa·s
298.15 K, 101 kPa, x2 = 0.3042
  viscosity: 10.14 ± 0.41 mPa·s
298.15 K, 101 kPa, x2 = 0.4308
  viscosity: 8.39 ± 0.34 mPa·s
298.15 K, 101 kPa, x2 = 0.7944
  viscosity: 3.61 ± 0.15 mPa·s
298.15 K, 101 kPa, x2 = 0.8803
  viscosity: 2.46 ± 0.1 mPa·s
303.15 K, 100 kPa, x2 = 0
  viscosity: 12.63 ± 0.77 mPa·s
303.15 K, 100 kPa, x2 = 0.1016
  viscosity: 11.21 ± 0.61 mPa·s
303.15 K, 100 kPa, x2 = 0.2014
  viscosity: 9.84 ± 0.5 mPa·s
303.15 K, 100 kPa, x2 = 0.2999
  viscosity: 8.59 ± 0.4 mPa·s
303.15 K, 100 kPa, x2 = 0.4015
  viscosity: 7.38 ± 0.3 mPa·s
303.15 K, 100 kPa, x2 = 0.5106
  viscosity: 6.19 ± 0.22 mPa·s
303.15 K, 100 kPa, x2 = 0.5934
  viscosity: 5.29 ± 0.16 mPa·s
303.15 K, 100 kPa, x2 = 0.7465
  viscosity: 3.67 ± 0.09 mPa·s
303.15 K, 100 kPa, x2 = 0.7974
  viscosity: 3.09 ± 0.07 mPa·s
303.15 K, 100 kPa, x2 = 0.9004
  viscosity: 1.89 ± 0.03 mPa·s
303.15 K, 100 kPa, x2 = 0.9498
  viscosity: 1.34 ± 0.02 mPa·s
308.15 K, 100 kPa, x2 = 0
  viscosity: 11.05 ± 0.67 mPa·s
308.15 K, 100 kPa, x2 = 0.1016
  viscosity: 9.86 ± 0.54 mPa·s
308.15 K, 100 kPa, x2 = 0.2014
  viscosity: 8.69 ± 0.44 mPa·s
308.15 K, 100 kPa, x2 = 0.2999
  viscosity: 7.61 ± 0.36 mPa·s
308.15 K, 100 kPa, x2 = 0.4015
  viscosity: 6.55 ± 0.27 mPa·s
308.15 K, 100 kPa, x2 = 0.5106
  viscosity: 5.5 ± 0.19 mPa·s
308.15 K, 100 kPa, x2 = 0.5934
  viscosity: 4.71 ± 0.15 mPa·s
308.15 K, 100 kPa, x2 = 0.7465
  viscosity: 3.27 ± 0.08 mPa·s
308.15 K, 100 kPa, x2 = 0.7974
  viscosity: 2.76 ± 0.06 mPa·s
308.15 K, 100 kPa, x2 = 0.9004
  viscosity: 1.7 ± 0.03 mPa·s
308.15 K, 100 kPa, x2 = 0.9498
  viscosity: 1.2 ± 0.02 mPa·s
308.2 K, 101 kPa, x2 = 0.2
  electrical conductivity: 3.89 ± 0.08 S/m
308.2 K, 101 kPa, x2 = 0.6
  electrical conductivity: 6.36 ± 0.14 S/m
313.15 K, 100 kPa, x2 = 0
  viscosity: 9.76 ± 0.59 mPa·s
313.15 K, 100 kPa, x2 = 0.1016
  viscosity: 8.74 ± 0.48 mPa·s
313.15 K, 100 kPa, x2 = 0.2014
  viscosity: 7.73 ± 0.39 mPa·s
313.15 K, 100 kPa, x2 = 0.2999
  viscosity: 6.79 ± 0.32 mPa·s
313.15 K, 100 kPa, x2 = 0.4015
  viscosity: 5.86 ± 0.24 mPa·s
313.15 K, 100 kPa, x2 = 0.5106
  viscosity: 4.93 ± 0.17 mPa·s
313.15 K, 100 kPa, x2 = 0.5934
  viscosity: 4.23 ± 0.13 mPa·s
313.15 K, 100 kPa, x2 = 0.7465
  viscosity: 2.93 ± 0.07 mPa·s
313.15 K, 100 kPa, x2 = 0.7974
  viscosity: 2.48 ± 0.05 mPa·s
313.15 K, 100 kPa, x2 = 0.9004
  viscosity: 1.53 ± 0.02 mPa·s
313.15 K, 100 kPa, x2 = 0.9498
  viscosity: 1.09 ± 0.02 mPa·s
313.15 K, 101 kPa, x2 = 0.2248
  viscosity: 7.79 ± 0.32 mPa·s
313.15 K, 101 kPa, x2 = 0.8803
  viscosity: 1.73 ± 0.07 mPa·s
313.15 K, 101 kPa, x2 = 0.953
  viscosity: 1.08 ± 0.04 mPa·s
313.2 K, 101 kPa, x2 = 0.2
  electrical conductivity: 4.32 ± 0.09 S/m
313.2 K, 101 kPa, x2 = 0.8
  electrical conductivity: 8.83 ± 0.19 S/m
318.15 K, 100 kPa, x2 = 0
  viscosity: 8.69 ± 0.53 mPa·s
318.15 K, 100 kPa, x2 = 0.1016
  viscosity: 7.79 ± 0.43 mPa·s
318.15 K, 100 kPa, x2 = 0.2014
  viscosity: 6.92 ± 0.35 mPa·s
318.15 K, 100 kPa, x2 = 0.2999
  viscosity: 6.1 ± 0.28 mPa·s
318.15 K, 100 kPa, x2 = 0.4015
  viscosity: 5.27 ± 0.21 mPa·s
318.15 K, 100 kPa, x2 = 0.5106
  viscosity: 4.45 ± 0.16 mPa·s
318.15 K, 100 kPa, x2 = 0.5934
  viscosity: 3.81 ± 0.12 mPa·s
318.15 K, 100 kPa, x2 = 0.7465
  viscosity: 2.64 ± 0.06 mPa·s
318.15 K, 100 kPa, x2 = 0.7974
  viscosity: 2.24 ± 0.05 mPa·s
318.15 K, 100 kPa, x2 = 0.9004
  viscosity: 1.39 ± 0.02 mPa·s
318.15 K, 100 kPa, x2 = 0.9498
  viscosity: 0.99 ± 0.01 mPa·s
318.2 K, 101 kPa, x2 = 0.2
  electrical conductivity: 4.77 ± 0.1 S/m
328.15 K, 101 kPa, x2 = 0.7944
  viscosity: 1.9 ± 0.08 mPa·s
328.2 K, 101 kPa, x2 = 0.2
  electrical conductivity: 5.74 ± 0.12 S/m
338.2 K, 101 kPa, x2 = 0.4
  electrical conductivity: 8.22 ± 0.17 S/m
338.2 K, 101 kPa, x2 = 0.6
  electrical conductivity: 10.6 ± 0.22 S/m
343.15 K, 101 kPa, x2 = 0
  viscosity: 5.48 ± 0.23 mPa·s

## O + CCCCCCCCCCCCCCCC[n+]1ccccc1.O=C([O-])C(O)c1ccccc1 + CC(C)C[C@H](N)C(=O)O
293.15 K, 101 kPa, x2 = 0, x3 = 0
  electrical conductivity: 0.00012 S/m
298.15 K, 101 kPa, x2 = 0, x3 = 0
  electrical conductivity: 0.00015 S/m
303.15 K, 101 kPa, x2 = 0, x3 = 0
  electrical conductivity: 0.00016 S/m
308.15 K, 101 kPa, x2 = 0, x3 = 0
  electrical conductivity: 0.00017 S/m
313.15 K, 101 kPa, x2 = 0, x3 = 0
  electrical conductivity: 0.00019 S/m

## CCCC[n+]1ccn(C)c1.F[B-](F)(F)F + C1COCCO1
298.15 K, 100 kPa, x1 = 0.2559
  electrical conductivity: 0.403 ± 0.004 S/m
  viscosity: 6.011 ± 0.079 mPa·s
298.15 K, 100 kPa, x1 = 0.3956
  electrical conductivity: 0.395 ± 0.004 S/m
  viscosity: 12.17 ± 0.16 mPa·s
298.15 K, 100 kPa, x1 = 0.4988
  electrical conductivity: 0.34 ± 0.003 S/m
  viscosity: 19.88 ± 0.26 mPa·s
298.15 K, 100 kPa, x1 = 0.6
  electrical conductivity: 0.306 ± 0.003 S/m
  viscosity: 29.48 ± 0.38 mPa·s
298.15 K, 100 kPa, x1 = 0.7021
  viscosity: 42.97 ± 0.55 mPa·s
298.15 K, 100 kPa, x1 = 0.8993
  electrical conductivity: 0.252 ± 0.003 S/m
  viscosity: 79.5 ± 1.4 mPa·s
298.15 K, 100 kPa, x1 = 1
  electrical conductivity: 0.243 ± 0.002 S/m
  viscosity: 104.7 ± 2.6 mPa·s
